Test results reported in EP1247803A2, “Indolinone compounds suitable for modulation of protein kinases” (Sugen, Inc., priority 1996, dated 1998).

How the values were obtained:
EGFR = molecular target: T1, EGFR (Homo sapiens, UniProt P00533); experiment: EGFR ELISA assay (in vitro kinase activity, EGFR captured from A431 cell lysate); type: biochemical; set-up: concentration or dose not given beside the values
T1 construct: Add 7 ug A431 cell lysate per well (EGFR source); endogenous in cells; host or cells: A431
In short: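 EGFR from A431 lysate was captured on anti-EGFR antibody-coated plates and preincubated with compounds for 30 min. Autophosphorylation ran 5 min with 3 uM ATP and 5 mM MnCl2 (final), stopped with 20 mM EDTA. Phosphotyrosine was detected by anti-pTyr ELISA with ABTS/H2O2, read at 410 nm.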

MET = MET biochemical kinase assay; set-up: species or system human; concentration or dose not given beside the values
In short: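 Human MET was captured from cell lysates onto ELISA plates via goat anti-rabbit Fc and rabbit polyclonal antibody to the MET cytoplasmic domain. After washing, test compounds and kinase buffer with ATP and divalent metal ions were added. Phosphotyrosine was detected with HRP-conjugated anti-phosphotyrosine antibody and TMB colorimetric read-out.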

T1 sequence (P00533 25-1210): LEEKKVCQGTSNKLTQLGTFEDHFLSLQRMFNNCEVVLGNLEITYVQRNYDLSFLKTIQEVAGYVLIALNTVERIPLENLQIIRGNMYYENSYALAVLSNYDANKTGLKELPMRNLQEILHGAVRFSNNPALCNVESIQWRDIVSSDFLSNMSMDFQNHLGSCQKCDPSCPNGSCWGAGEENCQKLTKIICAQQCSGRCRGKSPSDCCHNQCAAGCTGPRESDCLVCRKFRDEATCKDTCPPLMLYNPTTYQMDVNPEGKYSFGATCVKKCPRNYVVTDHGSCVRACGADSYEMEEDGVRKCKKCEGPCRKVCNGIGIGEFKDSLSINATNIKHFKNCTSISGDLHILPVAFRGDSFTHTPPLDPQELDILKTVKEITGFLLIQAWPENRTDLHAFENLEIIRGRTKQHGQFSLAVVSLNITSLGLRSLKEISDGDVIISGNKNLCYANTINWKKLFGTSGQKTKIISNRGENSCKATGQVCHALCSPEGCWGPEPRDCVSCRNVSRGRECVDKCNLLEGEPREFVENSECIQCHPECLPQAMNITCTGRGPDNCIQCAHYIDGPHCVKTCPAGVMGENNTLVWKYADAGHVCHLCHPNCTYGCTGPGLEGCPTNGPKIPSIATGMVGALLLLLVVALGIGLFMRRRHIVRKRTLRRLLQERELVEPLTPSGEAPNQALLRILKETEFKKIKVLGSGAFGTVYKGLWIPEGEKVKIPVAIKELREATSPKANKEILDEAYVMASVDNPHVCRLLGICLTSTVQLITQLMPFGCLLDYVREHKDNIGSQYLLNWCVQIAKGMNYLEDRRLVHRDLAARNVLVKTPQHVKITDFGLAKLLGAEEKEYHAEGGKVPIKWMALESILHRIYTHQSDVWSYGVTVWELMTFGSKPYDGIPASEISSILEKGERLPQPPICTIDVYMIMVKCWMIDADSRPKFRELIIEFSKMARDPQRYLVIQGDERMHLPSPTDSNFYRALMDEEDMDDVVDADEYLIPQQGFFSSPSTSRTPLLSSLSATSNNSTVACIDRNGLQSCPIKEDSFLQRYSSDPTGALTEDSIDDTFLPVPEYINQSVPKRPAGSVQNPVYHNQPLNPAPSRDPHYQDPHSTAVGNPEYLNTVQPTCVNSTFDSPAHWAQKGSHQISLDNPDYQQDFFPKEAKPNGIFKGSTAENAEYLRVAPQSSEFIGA

| Compound | Biochem EGFR %Inhibition (EGFR) | Met Kinase % Inhibition (MET) |
| --- | --- | --- |
| O=C1Nc2ccc(S(=O)(=O)Nc3ccc(C(F)(F)F)cc3)cc2C1=Cc1cc2c([nH]1)CCCC2 [10721/E05] | 61.3% | 69.9% |
| CNS(=O)(=O)c1ccc2c(c1)C(=Cc1ccc(F)cc1)C(=O)N2 [10717/D05] | -2.8% | 23.8% |
| CC(C)(C)c1cc(C=C2C(=O)Nc3ccc(S(=O)(=O)Nc4ccc(C(F)(F)F)cc4)cc32)cc(Br)c1O [10721/E10] | 19.9% | 55.7% |
| CC(C)(C)c1cc(C=C2C(=O)Nc3ccc(S(=O)(=O)Nc4ccc(C(F)(F)F)cc4)cc32)cc(C(C)(C)C)c1O [10721/E11] | 32.1% | 31.3% |
| Cc1cc(C=C2C(=O)Nc3ccc(S(=O)(=O)Nc4ccc(C(F)(F)F)cc4)cc32)sc1C [10721/E04] | 48.5% | 87.3% |
| O=C1Nc2ccc(S(=O)(=O)N3CCOCC3)cc2C1=Cc1ccc(Cl)s1 [10721/F07] | 3.5% | 55.7% |
| CNS(=O)(=O)c1ccc2c(c1)C(=Cc1ccc[nH]1)C(=O)N2 [10717/D09] | 6.8% | 29.1% |
| CNS(=O)(=O)c1ccc2c(c1)C(=Cc1cc(C(C)(C)C)c(O)c(C(C)(C)C)c1)C(=O)N2 [10721/D11] | 22.2% | 23.2% |
| Cn1cc(Cl)c(C=C2C(=O)Nc3ccc(S(=O)(=O)Nc4ccc(C(F)(F)F)cc4)cc32)n1 [10721/E03] | 25.1% | 12.3% |
| CNS(=O)(=O)c1ccc2c(c1)C(=Cc1cccs1)C(=O)N2 [10717/D03] | -1.4% | 11.1% |
| CC(C)(C)c1cc(C=C2C(=O)Nc3ccc(CCCl)cc32)cc(Br)c1O [10721/G10] | 2.1% | 12.0% |
| CC(C)(C)c1cc(C=C2C(=O)Nc3ccc(S(=O)(=O)N4CCOCC4)cc32)cc(Br)c1O [10721/F10] | 7.5% | 79.9% |
| CNS(=O)(=O)c1ccc2c(c1)C(=Cc1c[nH]c3ccccc13)C(=O)N2 [10717/D06] | -23.4% | 33.8% |
| CNS(=O)(=O)c1ccc2c(c1)C(=Cc1cc(Br)c(O)c(C(C)(C)C)c1)C(=O)N2 [10721/D10] | 3.3% | 13.4% |
| CNS(=O)(=O)c1ccc2c(c1)C(=Cc1ccc(Br)cc1)C(=O)N2 [10717/D08] | -7.8% | 16.0% |
| Cn1c(C=C2C(=O)Nc3ccc(S(=O)(=O)Nc4ccc(C(F)(F)F)cc4)cc32)nc2ccccc21 [10721/E02] | -9.5% | 38.8% |
| O=C1Nc2ccc(CCCl)cc2C1=Cc1ccc(Cl)s1 [10721/G07] | 14.7% | 10.0% |
| O=C1Nc2c(Br)cc(Br)cc2C1=Cc1cccs1 [10717/A03] | 1.0% | 54.6% |
| CNS(=O)(=O)c1ccc2c(c1)C(=Cc1ccc(C)s1)C(=O)N2 [10717/D07] | -4.5% | 16.8% |
| O=C1Nc2ccc(S(=O)(=O)N3CCOCC3)cc2C1=Cc1cc([N+](=O)[O-])cc(CCl)c1O [10721/F06] | 21.7% | 80.3% |
| CNS(=O)(=O)c1ccc2c(c1)C(=Cc1c(O)cccc1OC)C(=O)N2 [10717/D10] | 3.5% | 15.6% |
| Cn1c(C=C2C(=O)Nc3ccc(S(=O)(=O)N4CCOCC4)cc32)nc2ccccc21 [10721/F02] | 11.0% | 27.8% |
| O=C1Nc2ccc(S(=O)(=O)Nc3ccc(C(F)(F)F)cc3)cc2C1=Cc1cc([N+](=O)[O-])cc(CCl)c1O [10721/E06] | 91.5% | 81.0% |
